One experiment relates to L. innocua 3-day biofilm. Put plainly: Inactivation of 3-day cultured biofilm on plastic surface, plate counting assay. Type of experiment: cell-based, Listeria innocua. The note with it: 1-hour exposure. Here is the method: FIG. 6A is a graph illustrating inactivation of L. innocua in 3-day biofilm after 1-hour exposure: (a) metabolic activity of biofilm; (b) results of plate counting assay
The antimicrobial activity was characterized based on the metabolic activity of the biofilm measured using Resazurin and a plate counting assay.
The metabolic activity of biofilm after a 1-hour exposure to the particulate sanitizer was evaluated. The time required to achieve maximum fluorescence intensity indicated the relative level of metabolic activity of bacterial cells under different incubation conditions. Listeria biofilms that were incubated with PBS were treated as a control. […] The conventional sanitizer (sodium hypochlorite) only achieved 3-log reduction after a 1-hour exposure.
Pre-formed biofilms were treated with either a selected particle-based sanitizer or with a conventional sanitation procedure for the sanitation of a food contract surface. […] Quantification of the treatment was assessed based on measuring the changes in the metabolic activity of bacterial cells. Quantification of the residual biomass was conducted using crystal violet staining and calcofluor labeling and the standard plate counting of the bacterial cells after dispersing the biofilms using an ultrasonic washer.

The next experiment deals with Listeria innocua. Briefly: Inactivation of bacteria in simulated wash water. Type of experiment: cell-based. On the procedure:
The activity and inactivation of bacteria in simulated wash water exposed to the functionalized particles and conventional chlorine sanitizers were evaluated and compared. More than a 5-log reduction of Listeria innocua in wash water was obtained after a 0.5-min exposure to YCWPs based sanitizer at the concentration of 0.1 mg/mL. In comparison, the conventional chlorine-based sanitizer (sodium hypochlorite) needed 1.5 min to achieve a 5-log reduction. In the presence of organic matter (COD=2000 mg/L), more than 5 log reduction of Listeria innocua in wash water was obtained after 5 min exposure to YCWPs based sanitizer.

In another experiment the test system is E. coli O157:H7. Put plainly: Inactivation of bacteria on fresh produce (lettuce leaf) surfaces. Type of experiment: cell-based, Escherichia coli O157:H7. The note with it: Example 2; 20-min exposure, YCWPs@halamine 0.25 mg/ml; sodium hypochlorite 20 ppm free chlorine. On the procedure: FIG. 6B is a graph illustrating inactivation of E. coli O157:H7 on fresh produce surfaces after 20-min exposure to YCWPs@halamine (0.25 mg/ml).
The inactivation of bacteria on fresh produce surfaces was also evaluated. These YCWPs based sanitizer was also found to be effective in causing more than 5 log reductions in E. coli O157:H7 on the surface of lettuce leaves as shown in FIG. 6B. The conventional chlorine-based sanitizer (sodium hypochlorite, 20 ppm free chlorine) achieved less than 2-log reduction of the inoculated bacteria.
To inoculate fresh produce, samples (e.g., spinach, lettuce, tomato, and orange) were first rinsed with 70% ethanol and dried at 25° C. before sample preparation. Fresh produce samples were then prepared by cutting spinach and lettuce leaves into disks with 1 cm of diameter and tomato and orange skins into squares of 9 cm^2. […]
After inoculation and incubation, the meat and fresh produce samples were transferred to a simulated wash bath with added particle-based sanitizers. […] The samples were stirred in a shaking bath a speed of 250 rpm for a pre-determined period (1, 2, 5, and 10 min). […]
To quantify the reduction in microbial count, the samples after treatment were transferred to sterile tubes containing silicon-carbide beads and 10 mL of PBS, and vortexed for 60 seconds to recover the attached bacteria. […]

Regarding `OCl` [sodium hypochlorite], the “reduction of the bacterial population in the 3-day biofilm” value with L. innocua 3-day biofilm was 3 log. For the same molecule, the “reduction of bacterial population in wash water in the presence of organic matter” value in the experiment on Listeria innocua (COD=2000 mg/L, 20 ppm free chlorine, 20 minutes of exposure) is “did not reduce the bacterial population”. In the experiment on Listeria innocua (simulated wash water), the “time needed to achieve a 5-log reduction of Listeria innocua in wash water” value is listed as 1.5 min. In the experiment with E. coli O157:H7, the “reduction in E. coli O157:H7 on the surface of lettuce leaves” value is reported as “less than 2 log”.

The record behind these values is US20200337304A1, “ANTIMICROBIAL PARTICLES AND SANITIZATION METHODS” (priority 2017, published 2020).
